{
  "source": "paper PMC3226707",
  "about": "(Journal of molecular biology, 2011)",
  "molecules": {"B1": {"name": "Act-EF34 (alpha-actinin-2) 823-894 (protein)", "chain": "ADTDTAEQVIASFRILASDKPYILAEELRRELPPDQAQYCIKRMPAYSGPGSVPGALDYAAFSSALYGESDL"}},
  "key": {"[1]": {"molecular_target": "Act-EF34", "details": "binding to Act-EF34; cited from earlier work"}, "[2]": {"molecular_target": "Act-EF34 (C-terminal EF hand domain of α-actinin, actinin-2 residues 823–894) (Homo sapiens, UniProt P35609)", "experiment": "Isothermal titration calorimetry of palladin peptides with Act-EF34", "assay_type": "binding", "details": "for ΔH / ΔG / stoichiometry of binding: ITC; for ΔH / ΔG: 27 °C; for ΔH: one-binding site model; for ΔG: calculated using standard thermodynamic equations; for stoichiometry of binding: Act-EF34 titrations"}, "[3]": {"molecular_target": "T1, palladin peptide WT (Homo sapiens)", "T1 chain": "Ac-HGQTPAAFLSALLPSQP", "experiment": "ITC"}},
  "note": "Where no end group is shown, it is not given here.",
  "data": [
    {"molecule": "FVPKVVISAAKAKEQE [Titin Zr3]", "values": [
      {"measurement": "Kd", "setting": "[1]", "value": "> 4", "unit": "µM"}
    ]},
    {"molecule": "AVATVVAAVDQARVRE [Titin Zr7]", "values": [
      {"measurement": "Kd", "setting": "[1]", "value": "0.1 to 0.25", "unit": "µM"}
    ]},
    {"molecule": "AETAANRICKVLAVNQE [Actinin N-term]", "values": [
      {"measurement": "Kd", "setting": "[1]", "value": "0.568 ± 0.27", "unit": "µM"}
    ]},
    {"molecule": "Ac-HGQTSAAFLSALLPSQP [Palladin (FX)]", "values": [
      {"measurement": "Kd", "setting": "[2]", "value": "19.5 ± 4", "unit": "µM"},
      {"measurement": "ΔH", "setting": "[2]", "value": "-6.0 ± 0.2", "unit": "kcal/mol"},
      {"measurement": "ΔG", "setting": "[2]", "value": "−6.5", "unit": "kcal/mol*K"},
      {"measurement": "stoichiometry of binding", "setting": "[2]", "value": "~1"}
    ]},
    {"molecule": "Ac-HGQTPAAFLSALLPSQP [Palladin (WT)]", "values": [
      {"measurement": "Kd", "setting": "[2]", "value": "15.7 ± 7.7", "unit": "µM"},
      {"measurement": "ΔH", "setting": "[2]", "value": "-4.5 ± 0.2", "unit": "kcal/mol"},
      {"measurement": "ΔG", "setting": "[2]", "value": "−6.6", "unit": "kcal/mol*K"},
      {"measurement": "stoichiometry of binding", "setting": "[2]", "value": "~1"}
    ]},
    {"molecule": "AVATVVAAVDMARVRE [Titin Zr1]", "values": [
      {"measurement": "Kd", "setting": "[1]", "value": "0.2 to 0.3", "unit": "µM"}
    ]},
    {"molecule": "B1", "values": [
      {"measurement": "Kd", "setting": "[3]", "value": 15.7, "unit": "µM"}
    ]}
  ]
}
